# Assay results taken from patent publication US8563742B2, “Substituted aminothiazole derivatives, pharmaceutical compositions, and methods of use” (High Point Pharmaceuticals, LLC, priority 2008, dated 2013).
# Molecular target: T1, human MC-4R (Homo sapiens, UniProt P32245)
# T1 construct: expressed in transfected cells
# Assay: Biological Assay: inhibition of AgRP functional interaction with MC-4R in presence of αMSH (cAMP production)
# Type: cell-based
# Conditions: Average EC50 (nM) in Biological Assay, HEK293 cells expressing human MC-4R, AgRP83-132 and αMSH present
# Procedure: The following method is illustrative of techniques that may be employed to measure the ability of the compounds of Formula (I) to functionally modulate the binding of AgRP to melanocortin receptors. In particular, the assay below measures the ability of compounds of Formula (I) or pharmaceutically acceptable salts thereof to functionally modulate the binding of AgRP to MC-4R in the presence of a MC-4R agonist, such as alpha-MSH.
# HEK293 cells stably expressing human MC-4R receptors were grown in high glucose Dulbecco's Modified Eagle Medium (DMEM) with 4500 mg glucose/L, L-glutamine, NaHCO3, pyrdoxin HCl, 10 mM HEPES (pH 7.4), 0.1 mM NEAA (non-essential amino acid medium) (GIBCO Cat#11140-050), 10% fetal bovine serum and 700 μg/mL G418. Cells were grown in T-225 flasks at 37° C. with CO2 and humidity control.
# On the day of assay, cells were washed twice with phosphate buffered saline without calcium and magnesium (PBS) and incubated with 10 mL PBS until the cells were detached from the flask. The detached cells were centrifuged at 240 g for 5 min. The cell pellet was re-suspended in assay buffer (Earle's balanced salt solution (Sigma E3024) supplemented with 10 mM HEPES, pH 7.4, 0.5 mM IBMX and protease inhibitor cocktail (Roche, 1 complete tablet/75 mL buffer)).
# The inhibitory or enhancement effect of compounds on AgRP activity was measured in a multi-component assay containing testing compounds, AgRP83-132 (human, Phoenix Pharma, cat no. 003-53), cells expressing MC-4R, and αMSH (Bachem, cat no. H-1075). Test compounds, AgRP and αMSH were diluted with assay buffer. Test compounds and AgRP were mixed to 4 times of the final concentration and incubated at room temperature for 30 min. Five μL of testing compound/AgRP solution followed with 10 μL of cells (20,000 cells/well) were added to each well of a 384-well reaction plate before 5 μL of αMSH was added. Cells were stimulated with αMSH for an additional 30 min at 37° C.
# Stimulation of cells was stopped by adding a lysis buffer and cells were lysed. The intracellular concentration of cAMP may be measured by various techniques known to one of skill in the art including, but not limited to, fluorescence polarization (FP) and time-resolved fluorescence (TRF).
# The inhibition was shown by an increase in MC-4R mediated cAMP production.
# T1 sequence (P32245 whole entry): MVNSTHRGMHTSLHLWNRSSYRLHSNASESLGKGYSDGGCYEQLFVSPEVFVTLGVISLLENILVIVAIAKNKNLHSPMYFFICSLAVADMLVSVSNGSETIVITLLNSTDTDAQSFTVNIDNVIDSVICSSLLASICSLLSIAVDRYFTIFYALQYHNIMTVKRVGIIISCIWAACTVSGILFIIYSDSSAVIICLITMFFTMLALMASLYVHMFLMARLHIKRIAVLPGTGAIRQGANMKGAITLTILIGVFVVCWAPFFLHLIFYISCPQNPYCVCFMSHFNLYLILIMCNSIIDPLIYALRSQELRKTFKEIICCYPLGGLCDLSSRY
row,SMILES,EC50 [nM]
1,"CCc1ccc(CN(CCC(=O)O)c2nc(C3CCC(CC)CC3)cs2)s1 (stereo not shown) [Example 20, 3-[[4-(4-Ethyl-cyclohexyl)-thiazol-2-yl]-(5-ethyl-thiophen-2-ylmethyl)-amino]-propionic acid]",389
2,"CC(C)C1CCC(c2csc(N(CCC(=O)O)Cc3ccc(S(C)(=O)=O)s3)n2)CC1 (stereo not shown) [Example 37, 3-[[4-(4-Isopropyl-cyclohexyl)-thiazol-2-yl]-(5-methanesulfonyl-thiophen-2-ylmethyl)-amino]-propionic acid]",524

# Same assay, conditions: HEK293 cells expressing human MC-4R, AgRP83-132 and αMSH present; read-out: Average EC50 (nM) in Biological Assay
row,SMILES,EC50 [nM]
1,"CCc1ccc(CN(CCC(=O)O)c2nc(C3CC4CCC3C4)cs2)s1 (stereo not shown) [Example 1, Sodium; 3-[(4-bicyclo[2.2.1]hept-2-yl-thiazol-2-yl)-(5-ethyl-thiophen-2-ylmethyl)-amino]-propionate]",126
2,"CCc1ccc(CN(CCC(=O)O)c2nc([C@H]3CC[C@H](C(C)C)CC3)cs2)s1 [Example 10, Sodium; 3-[(5-ethyl-thiophen-2-ylmethyl)-[4-(4-trans-isopropyl-cyclohexyl)-thiazol-2-yl]-amino]-propionate]",260
3,"CCc1ccc(CN(CCC(=O)O)c2nc(C3Cc4ccccc4C3)cs2)s1 [Example 11, 3-[(5-Ethyl-thiophen-2-ylmethyl)-(4-indan-2-yl-thiazol-2-yl)-amino]-propionic acid]",252
4,"Cc1ccc(CN(CCC(=O)O)c2nc(C3Cc4ccccc4C3)cs2)s1 [Example 12, 3-[(4-Indan-2-yl-thiazol-2-yl)-(5-methyl-thiophen-2-ylmethyl)-amino]-propionic acid]",384
5,"CCc1ccc(CN(CCC(=O)O)c2nc(C3CCc4ccccc4C3)cs2)s1 (stereo not shown) [Example 13, 3-{(5-Ethyl-thiophen-2-ylmethyl)-[4-(1,2,3,4-tetrahydro-naphthalen-2-yl)-thiazol-2-yl]-amino}-propionic acid]",528
6,"Cc1ccc(CN(CCC(=O)O)c2nc(C3CCc4ccccc4C3)cs2)s1 (stereo not shown) [Example 14, 3-{(5-Methyl-thiophen-2-ylmethyl)-[4-(1,2,3,4-tetrahydro-naphthalen-2-yl)-thiazol-2-yl]-amino]-propionic acid]",602
7,"CCc1ccc(CN(CCC(=O)O)c2nc(CC3CCC(C)CC3)cs2)s1 (stereo not shown) [Example 15, 3-{(5-Ethyl-thiophen-2-ylmethyl)-[4-(4-methyl-cyclohexylmethyl)-thiazol-2-yl]-amino}-propionic acid]",221
8,"Cc1ccc(CN(CCC(=O)O)c2nc(CC3CCC(C)CC3)cs2)s1 (stereo not shown) [Example 16, 3-[[4-(4-Methyl-cyclohexylmethyl)-thiazol-2-yl]-(5-methyl-thiophen-2-ylmethyl)-amino]-propionic acid]",205
9,"CCc1ccc(CN(CCC(=O)O)c2nc(C3CCC(C(F)(F)F)CC3)cs2)s1 (stereo not shown) [Example 17, 3-{(5-Ethyl-thiophen-2-ylmethyl)-[4-(4-trifluoromethyl-cyclohexyl)-thiazol-2-yl]-amino}-propionic acid]",259
10,"Cc1ccc(CN(CCC(=O)O)c2nc(C3CCC(C(F)(F)F)CC3)cs2)s1 (stereo not shown) [Example 18, 3-{(5-Methyl-thiophen-2-ylmethyl)-[4-(4-trifluoromethyl-cyclohexyl)-thiazol-2-yl]-amino}-propionic acid]",416
11,"CCCC1CCC(c2csc(N(CCC(=O)O)Cc3ccc(CC)s3)n2)CC1 (stereo not shown) [Example 22, 3-{(5-Ethyl-thiophen-2-ylmethyl)-[4-(4-propyl-cyclohexyl)-thiazol-2-yl]-amino]-propionic acid]",394
12,"CCc1ccc(CN(CCC(=O)O)c2nc(C3CCC(F)(F)CC3)cs2)s1 [Example 24, Sodium; 3-[[4-(4,4-difluoro-cyclohexyl)-thiazol-2-yl]-(5-ethyl-thiophen-2-ylmethyl)-amino]-propionate]",79
13,"Cc1ccc(CN(CCC(=O)O)c2nc(C3CCC(C(C)(C)C)CC3)cs2)s1 (stereo not shown) [Example 27, 3-[[4-(4-tert-Butyl-cyclohexyl)-thiazol-2-yl]-(5-methyl-thiophen-2-ylmethyl)-amino]-propionic acid]",114
14,"CCc1ccc(CN(CCC(=O)O)c2nc(C3CCC(C(C)(C)C)CC3)cs2)s1 (stereo not shown) [Example 28, 3-[[4-(4-tert-Butyl-cyclohexyl)-thiazol-2-yl]-(5-ethyl-thiophen-2-ylmethyl)-amino]-propionic acid]",171
15,"CSc1ccc(CN(CCC(=O)O)c2nc(C3CCC(C(C)(C)C)CC3)cs2)s1 (stereo not shown) [Example 29, Sodium; 3-[[4-(4-tert-butyl-cyclohexyl)-thiazol-2-yl]-(5-methylsulfanyl-thiophen-2-ylmethyl)-amino]-propionate]",427

# Next, values leading:
row,EC50 [nM],SMILES
1,58,"CCC1(c2csc(N(CCC(=O)O)Cc3ccc(C)s3)n2)CCC(C(C)C)CC1 (mixture of isomers) [Example 41, Sodium; 3-[[4-(1-ethyl-4-isopropyl-cyclohexyl)-thiazol-2-yl]-(5-methyl-thiophen-2-ylmethyl)-amino]-propionate]"
2,3890,"COC1CCC(c2csc(N(CCC(=O)O)Cc3ccc(C)s3)n2)CC1 (stereo not shown) [Example 30, 3-[[4-(4-Methoxy-cyclohexyl)-thiazol-2-yl]-(5-methyl-thiophen-2-ylmethyl)-amino]-propionic acid]"
3,2280,"CCc1ccc(CN(CCC(=O)O)c2nc(C3CCC(OC)CC3)cs2)s1 (stereo not shown) [Example 32, 3-{(5-Ethyl-thiophen-2-ylmethyl)-[4-(4-methoxy-cyclohexyl)-thiazol-2-yl]-amino}-propionic acid]"
4,1230,"CCc1ccc(CN(CCC(=O)O)c2nc(C3CCC(OC)CC3)cs2)s1 (stereo not shown) [Example 33, 3-{(5-Ethyl-thiophen-2-ylmethyl)-[4-(4-methoxy-cyclohexyl)-thiazol-2-yl]-amino}-propionic acid]"
5,269,"Cc1ccc(CN(CCC(=O)O)c2nc(C3(c4ccc(F)cc4)CCCC3)cs2)s1 [Example 34, Sodium; 3-[{4-[1-(4-fluoro-phenyl)-cyclopentyl]-thiazol-2-yl}-(5-methyl-thiophen-2-ylmethyl)-amino]-propionate]"
6,132,"Cc1ccc(C2(c3csc(N(CCC(=O)O)Cc4ccc(C)s4)n3)CCCC2)cc1 [Example 35, Sodium; 3-{(5-methyl-thiophen-2-ylmethyl)-[4-(1-p-tolyl-cyclopentyl)-thiazol-2-yl]-amino}-propionate]"
7,267,"CC(C)(C)C1CCC(c2csc(N(CCC(=O)O)Cc3ccc(S(C)(=O)=O)s3)n2)CC1 (stereo not shown) [Example 36, 3-[[4-(4-tert-Butyl-cyclohexyl)-thiazol-2-yl]-(5-methanesulfonyl-thiophen-2-ylmethyl)-amino]-propionic acid]"
8,173,"CCc1ccc(CN(CCC(=O)O)c2nc(C3(CC(C)C)CCCC3)cs2)s1 [Example 43, 3-{(5-Ethyl-thiophen-2-ylmethyl)-[4-(1-isobutyl-cyclopentyl)-thiazol-2-yl]-amino}-propionic acid]"
9,191,"Cc1cc(CN(CCC(=O)O)c2nc(C3(CC(C)C)CCCC3)cs2)c(C)s1 [Example 44, 3-{(2,5-Dimethyl-thiophen-3-ylmethyl)-[4-(1-isobutyl-cyclopentyl)-thiazol-2-yl]-amino}-propionic acid]"
10,159,"CCC1(c2csc(N(CCC(=O)O)Cc3ccc(C)s3)n2)CCC(C)CC1 (stereo not shown) [Example 45, Sodium; 3-[[4-(1-ethyl-4-methyl-cyclohexyl)-thiazol-2-yl]-(5-methyl-thiophen-2-ylmethyl)-amino]-propionate]"
11,102,"CCc1ccc(CN(CCC(=O)O)c2nc(C3(C)CCC(C(C)C)CC3)cs2)s1 (stereo not shown) [Example 49, Sodium; 3-{(5-ethyl-thiophen-2-ylmethyl)-[4-(4-isopropyl-1-methyl-cyclohexyl)-thiazol-2-yl]-amino}-propionate]"
12,154,"Cc1ccc(CN(CCC(=O)O)c2nc(C3(C)CCC(C(C)(C)C)CC3)cs2)s1 (stereo not shown) [Example 50, 3-[[4-(4-tert-Butyl-1-methyl-cyclohexyl)-thiazol-2-yl]-(5-methyl-thiophen-2-ylmethyl)-amino]-propionic acid]"
13,143,"Cc1ccc(CN(CCC(=O)O)c2nc(C3(C)CCC(c4ccccc4)CC3)cs2)s1 (stereo not shown) [Example 51, 3-[[4-(1-Methyl-4-phenyl-cyclohexyl)-thiazol-2-yl]-(5-methyl-thiophen-2-ylmethyl)-amino]-propionic acid]"
14,267,"Cc1ccc(CN(CCC(=O)O)c2nc(C3(C)CCC(C)(C)CC3)cs2)s1 [Example 52, 3-[[4-(1,4,4-trimethyl-cyclohexyl)-thiazol-2-yl]-(5-methyl-thiophen-2-ylmethyl)-amino]-propionic acid]"
